Measurements reported in PMC8868346, “Novel Series of Dual NRF2 Inducers and Selective MAO-B Inhibitors for the Treatment of Parkinson’s Disease” (Antioxidants, 2022).
Like-named read-outs stand apart in the source and are kept apart here.

How the values were obtained:
[1] = system: NRF2; test: NRF2 induction, luciferase activity in AREc32 reporter cells; assay type: cell-based, human; settings: for EC50: Homo sapiens, 24 h, concentration required to double luciferase activity compared to basal, read-out: CD (µM) NRF2 Induction; for fold potentiation of NRF2 induction compared to the corresponding -OMe derivative: 11, 12 vs 10, 14, 15 vs 13
Description: Cells were used from the third to twelfth passage.
AREc32 cells were stably transfected with the plasmid pGL-8xARE that implements 8 copies of the antioxidant response element (ARE) sequences followed by luciferase reporter gen. Therefore, NRF2 induction can be related to the activation of ARE sequences by measuring luciferase activity in terms of luminescence production. For NRF2 induction experiments, cells were plated in 96 white flat bottom well plates (20,000 cells/well). After 24 h, cells were incubated with selected compounds at the desired concentrations in duplicates for 24 h. The Luciferase Assay System (Promega E1500) was used according to provider protocol and luminescence was quantified in an Orion II microplate luminometer (Berthold, Germany). Fold induction of luciferase activity was normalized to basal conditions. Data were expressed as CD values, which means the concentration needed to duplicate the luciferase activity compared to basal conditions. CD values were calculated from dose–response curves fitted by non-linear regression for each compound after logarithmic transformation of the data using GraphPad Prism 8.0 software.

[2] = system: Mixed primary glial cultures; test: Cytotoxicity in mixed primary glial cultures (MTT); settings: MTT reduction
Description: Mixed primary glial cultures were obtained from cerebral cortex of 2–5-day-old Sprague–Dawley rats. Blood vessels and meninges were first removed in Hank’s balanced salt solution (HBSS) and then forebrains were dissociated in DMEM/F12 medium. After mechanical dissociation, filtering, and centrifugation at 800 rpm for 10 min, cells were plated at a density of 30,000 cells/well in DMEM/F12 medium with 20% (v/v) FBS and 1% penicillin/streptomycin (10,000 units). […] After 5 days, medium was substituted by DMEM/F12 medium with 10% (v/v) FBS. Cells were cultured for 7–10 days before treatment.
Basal absorbance was set to 100% and results were normalized to basal conditions.
Cytotoxicity. LD50 values in several cell cultures employed
Table S2. Cytotoxicity elicited by 10-18 compounds in SH-SY5Y, AREc32 and mixed pr imary glial cultures. Viability was measured as MTT reduction in presence of increasing concentrations of der ivatives. LD50 values were calcula ted from dose-response curves. Data are expr essed as mean ± SEM of at least 3 independent experiments.
1.3. PAMPA control compounds (BBB permeability)
Table S3. Pr ediction of the BBB passive permeability of control compounds

[3] = system: SH-SY5Y cells; test: Neuroprotection in SH-SY5Y against rotenone/oligomycin A (MTT); assay type: cell-based, human; settings: compound 0.1 µM, 24 h pre- and 24 h co-incubation
Description: (§1) Cells were seeded at a density of 60,000 cells/well in 96-well transparent plates for 24 h. Then cells were pre-incubated with the corresponding compound at 0.1 μM. After 24 h, the medium was removed and replaced with 1% (v/v) FBS media containing the corresponding compound at 0.1 µM and the selected toxic stimuli, namely a mixture of rotenone and oligomycin A (R/O; 30/10 μM, respectively; Sigma–Aldrich, Spain) or 6-hydroxydopamine (100 µM; Sigma–Aldrich, Spain). […].

[4] = Blood–brain barrier permeation assay (PAMPA); settings: BBB permeability class from Pe
Description: Briefly, permeability of the compounds was measured at an initial concentration of 100 µM, including positive and negative controls (Supplementary Data; Table S3). […] After 5 min, 180 µL of each compound solution in PBS (10 mM, pH 7.4) was added to determine their ability to pass the membrane (VD). The 96-well acceptor plate (Multiscreen, Millipore Corp., Madrid Spain) was loaded with 180 µL of PBS (VA). Then, the donor filter plate was carefully placed on the acceptor plate to form a sandwich-like system, which was left undisturbed for 4 h at room temperature. After incubation, the donor plate was removed and the absorbance at the maximum absorption wavelength for each compound was recorded in both the acceptor and donor wells (150 µL/well) using a UV plate reader SPECTROstar Nano (BMG Labtech, Ortenberg, Germany). Concentration of the compounds in the donor and acceptor plates and equilibrium concentration were calculated and expressed as permeability (Pe) according the Equation (1). Results are expressed as mean ± standard error of the mean (SEM) of at least three different experiments in duplicate:(1) logPe =log{C×−ln(1−[drug]acceptor/[drug]equilibrium)} where C=(VD×VA/(VD +VA)×Area×Time) .

[5] = biological target: T1, hrMAO-B (Homo sapiens, UniProt P27338); test: Inhibition of monoamine oxidase B (Amplex UltraRed, tyramine); assay type: biochemical; settings: for Selectivity Index (MAO-A/MAO-B): ratio IC50 MAO-A/IC50 MAO-B
T1 construct: purchased Sigma–Aldrich
T1 sequence (P27338 1-520): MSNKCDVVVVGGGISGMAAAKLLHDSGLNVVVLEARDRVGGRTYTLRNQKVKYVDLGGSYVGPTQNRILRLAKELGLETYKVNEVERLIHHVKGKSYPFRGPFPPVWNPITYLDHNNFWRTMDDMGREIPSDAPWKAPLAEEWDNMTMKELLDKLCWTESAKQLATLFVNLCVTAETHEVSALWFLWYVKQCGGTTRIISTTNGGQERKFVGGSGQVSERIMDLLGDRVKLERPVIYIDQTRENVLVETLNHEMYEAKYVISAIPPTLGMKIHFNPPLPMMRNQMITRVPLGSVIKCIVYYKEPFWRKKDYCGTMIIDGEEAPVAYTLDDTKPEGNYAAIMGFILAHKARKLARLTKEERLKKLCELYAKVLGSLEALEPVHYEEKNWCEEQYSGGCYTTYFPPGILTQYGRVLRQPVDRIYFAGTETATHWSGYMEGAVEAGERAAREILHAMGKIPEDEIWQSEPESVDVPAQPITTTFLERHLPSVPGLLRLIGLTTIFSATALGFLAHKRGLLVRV

[6] = Oxygen radical absorbance capacity (ORAC) assay; settings: Trolox equivalents; AAPH, fluorescein
Description: The ORAC test was performed to evaluate the oxygen free radical scavenger capacity of the compounds. […] Compounds at desired concentrations (0.03, 0.1, 0.3, 1, 3, and 10 µM) were diluted in phosphate-buffered saline (PBS; 10 mM, pH 7.4) at 37 °C and placed in a 96 black flat bottom well plate. […] A fluorescence measurement was done first to determine the basal signal. Then, 25 µL of 2, 2′-azobis-amidinopropane dihydrochloride (AAPH) (12 mM final concentration) was quickly added. All samples were measured in duplicates in three different experiments. […] Results were expressed in terms of Trolox equivalents (T.eq.), obtained by plotting net AUC versus compound concentration, then performing linear regression and normalizing slopes of the compounds considering Trolox as reference.

[7] = system: SH-SY5Y cells; test: Neuroprotection in SH-SY5Y against 6-hydroxydopamine (MTT); assay type: cell-based, human; settings: 6-OHDA 100 µM; compound 0.1 µM, 24 h pre- and 24 h co-incubation
Description: as §1

[8] = system: IL-1β; test: IL-1β levels by ELISA in LPS stimulated primary mixed glial cultures; assay type: cell-based, rat; settings: compound 10 μM; LPS 1 µg/mL 18 h
Description: Cells were cultured for 7–10 days before treatment.
Primary glial cells were pre-treated with compounds at the desired concentration for 24 h. Then, treatments were removed and glial cells were incubated with lipopolysaccharide (LPS, 1 μg/mL; Sigma–Aldrich, Spain) in the presence of each compound at the desired concentration for 18 h. Nitrite production was then assessed by modified Griess assay. Briefly, 150 µL of each sample was mixed with 75 µL of 4,4′-diamino-diphenylsulfone (Dapsone) and 75 µL of N-(1-naphthyl)ethylenediamine (Neda). The mixture was incubated at room temperature for 5 min. […] Data were normalized to basal conditions, setting this value as 100% of nitrite production. EC50 values were calculated from dose–response curves obtained from representing percentage of nitrites reduction vs. compound concentration.
Supernatants obtained from mixed primary glial cell cultures were used to determine IL-1β levels by quantitative ELISA kits (Preprotech, R&D Systems-bioNova, Madrid, Spain) following the manufacturer’s instructions. Commercial solution of IL-1β was used to generate a standard curve for sample quantification. Absorbance was measured in a microplate reader SPECTROstar Nano (BMG Labtech) at 405 with 650 nm correction.

[9] = 30 min pre-incubation, 37 °C, read-out: IC50 MAO-B

## C#CCNCCc1c[nH]c2ccc(OC)cc12 [Compound 10, N-(2-(5-Methoxy-1H-indol-3-yl)ethyl)prop-2-yn-1-amine]
[1]; AREc32 cells
  EC50: 20.9 ± 2.2 µM
[2]
  LD50 (µM) Mixed primary glial cultures: > 30 µM
[3]
  R/O (30/10 µM) Protection (%): 44.6%
[4]
  PAMPA Prediction: CNS + (CNS + (high BBB permeability): Pe (10^−6 cm s^−1) > 4.0)
[5]
  IC50: 77.6 ± 9.1 µM
  Selectivity Index (MAO-A/MAO-B): 0.0106
[5]; MAO-B vs MAO-A
  MAO isozyme selectivity: MAO-A selectivity
[6]
  ORAC (T. eq.): 2.47 ± 0.13 T. eq.
[7]
  6-OHDA Protection (%): 83.5%
[8]
  IL-1β Levels % Reduction (10 μM): 68.4 ± 4.9%

## C#CCN(CC#C)CCc1c[nH]c2ccc(OC)cc12 [Compound 13, N-(2-(5-Methoxy-1H-indol-3-yl)ethyl)-N-(prop-2-yn-1-yl)prop-2-yn-1-amine]
[1]; AREc32 cells
  EC50: 13.9 ± 1.5 µM
[2]
  LD50 (µM) Mixed primary glial cultures: > 30 µM
[3]
  R/O (30/10 µM) Protection (%): 42.7%
[4]
  PAMPA Prediction: CNS + (CNS + (high BBB permeability): Pe (10^−6 cm s^−1) > 4.0)
[5]
  IC50: 89.1 ± 4.3 µM
  Selectivity Index (MAO-A/MAO-B): >1.12
[6]
  ORAC (T. eq.): 2.09 ± 0.11 T. eq.
[7]
  6-OHDA Protection (%): 87.4%
[8]
  IL-1β Levels % Reduction (10 μM): 67.4 ± 5.80%

## C#CCN(CC#C)CCc1c[nH]c2ccc(OC(=O)/C=C/c3ccc(C)cc3)cc12 [Compound 15, 3-(2-(Di(prop-2-yn-1-yl)amino)ethyl)-1H-indol-5-yl-(E)-3-(p-tolyl) Acrylate]
[1]
  fold potentiation of NRF2 induction compared to the corresponding -OMe derivative: 3 fold
[1]; AREc32 cells
  EC50: 5.76 ± 0.07 µM
[2]
  LD50 (µM) Mixed primary glial cultures: > 30 µM
[3]
  R/O (30/10 µM) Protection (%): 36.4%
[4]
  PAMPA Prediction: CNS + (CNS + (high BBB permeability): Pe (10^−6 cm s^−1) > 4.0)
[5]; [9]
  IC50: 28.1 ± 0.6 µM
[6]
  ORAC (T. eq.): 1.74 ± 0.10 T. eq.
[7]
  6-OHDA Protection (%): 41.5%
[8]
  IL-1β Levels % Reduction (10 μM): 60.5 ± 3.50%

## C#CCN(CC#C)CCc1c[nH]c2ccc(OC(=O)C=Cc3ccccc3)cc12 [Compound 14, 3-(2-(Di(prop-2-yn-1-yl)amino)ethyl)-1H-indol-5-yl Cinnamate]
[1]
  fold potentiation of NRF2 induction compared to the corresponding -OMe derivative: 3 fold
[1]; AREc32 cells, 24 h, 3, 5, and 10 µM
  luciferase activity (NRF2 induction) dose–response: significantly increasing luciferase activity
[1]; AREc32 cells
  EC50: 5.07 ± 0.23 µM
[2]
  LD50 (µM) Mixed primary glial cultures: > 30 µM
[3]
  R/O (30/10 µM) Protection (%): 53.3%
[4]
  PAMPA Prediction: CNS + (CNS + (high BBB permeability): Pe (10^−6 cm s^−1) > 4.0)
[5]; [9]
  IC50: 17 ± 1.6 µM
[6]
  ORAC (T. eq.): 1.98 ± 0.15 T. eq.
[7]
  6-OHDA Protection (%): 71.7%
[8]
  IL-1β Levels % Reduction (10 μM): 41.1 ± 1.7%
